From US8309767B2, “2-aminobenzoyl derivatives” (Neurim Pharmaceuticals (1991) Ltd., priority 2003, dated 2012)

Tests used:
NMDA receptors = assay: Electrophysiological characterisation of NMDA-activated currents in freshly isolated hippocampal neurones (whole-cell patch clamp); type: cell-based; settings: rat hippocampal neurones
Experimental: Electrophysiological characterisation of NMDA-activated currents in freshly isolated hippocampal neurones of rat.
Isolation of hippocampal neurons: Wistar rats (12-14 days) were decapitated without anaesthesia and the hippocampus was removed. It was manually cut into slices (0.2-0.4 mm), in a solution containing (mM): 150 NaCl; 5 KCl; 1.25 NaH2PO4; 2 CaCl2; 2 MgCl2; 26 NaHCO3; 20 glucose. Slices were preincubated in this solution for 30 min at room temperature. The enzymatic treatment proceeded in the same solution with lower Ca2+ concentration (0.5 mm) containing 0.4 mg/ml protease from aspergillus oryzae. The incubation in the enzyme solution proceeded at 32° C. within 10 min. […]
Current recording and data analysis: The drug-containing solutions were applied by the fast “concentration clamp” method using “jumping table” set-up (Pharma Robot, Kiev). The currents were recorded with patch clamp technique in the whole-cell configuration. […]
NMDA-activated currents: The currents were filtered at 3 kHz (three-pole active Bessel filter) digitally sampled at the rate […] for NMDA activated currents. NMDA-induced transmembrane currents were measured in the presence of 10 μM glycine and 300 μM L-aspartate in the control and test solutions. The currents were recorded at holding potential −70 mV. […]

MPTP-treated mice = assay: Anti-Parkinsonian activity: motor activity of MPTP-treated mice with/without a subthreshold dose of L-Dopa; type: in vivo, C57 BL/6 mice; settings: for LOCOMOTION / REARING / TOTAL ACTIVITY: mean ± SD
Experimental: Evaluation of the anti-Parkinsonian activity using MPTP-treated mice with/without a subthreshold dose of L-Dopa
Animals: six month old male C57 BL/6 mice, weighing 22-25 g were used. Following arrival at the laboratory, the mice were allowed to acclimatise for two weeks in a room with controlled temperature (21±1° C.), and a constant light-dark schedule (12 hr on/12 hr off, lights on between 06.00 and 18.00 hrs). Free access to food and water was maintained throughout. They were housed in groups of 12 animals and tested only during the hours of light (08.00-15.00 hrs). All testing was performed in a normally lighted room. Each test chamber (i.e. activity test cage) was placed in a soundproofed wooden box with 12 cm thick walls and front panels and had dimmed lighting.
Behavioral measurements and apparatus: An automated device, consisting of macrolon rodent test cages (40×25×15 cm) each placed within two series of infra-red beams (at two different heights, one low and one high, 2 and 8 cm, respectively, above the surface of the sawdust, 1 cm deep), was used to measure spontaneous and/or drug-induced motor activity of MPTP and control mice. The following parameters were measured: LOCOMOTION was measured by the low grid of infrared beams. Counts were registered only when the mouse in the horizontal plane, ambulating around the test-cage. REARING was registered throughout the time when at least one high level beam was interrupted, i.e. the number of counts registered was proportional to the amount of time spent rearing. TOTAL ACTIVITY was measured by a sensor (a pick-up similar to a gramophone needle, mounted on a lever with a counterweight) with which the test cage was constantly in contact. The sensor registered all types of vibration received from the test cage, such as those produced both by locomotion and rearing as well as shaking, tremors, scratching and grooming.
Behavioral measurements (locomotion, rearing and total activity): Twelve days after MPTP injections (2×40 mg/kg, s.c., 24 hr interval), the mice were injected i.p with 2-(2-aminobenzoyl)-N-(2,4-dinitrophenyl)ethylamine (0.3, 1, 3, 10 mg/kg) or vehicle (10% DMSO, 1% CMC) and immediately thereafter placed in the activity test chambers and their motor behaviour were monitored for 60 min. After 60 min, the mice were injected with 5 mg/kg L-Dopa (s.c) and then replaced in the test chamber and activity measurements maintained for a further 240 min. Each dose was separated by two days, starting from the lowest dose.
Table 1 presents the mean (± standard deviations) locomotion, rearing and total activity counts of MPTP-treated and control mice administered either 2-(2-aminobenzoyl)-N-(2,4-dinitrophenyl)ethylamine or vehicle administered with a subthreshold dose of L-Dopa. 1 % level of significance is represented by an asterisk (Tukey HSD test).

[1] = MPTP mice, 0.3 mg/kg i.p. with subthreshold L-Dopa 5 mg/kg s.c.
[2] = MPTP mice, 1 mg/kg i.p. with subthreshold L-Dopa 5 mg/kg s.c., * 1% significance
[3] = MPTP mice, 3 mg/kg i.p. with subthreshold L-Dopa 5 mg/kg s.c., * 1% significance
[4] = MPTP mice, 10 mg/kg i.p. with subthreshold L-Dopa 5 mg/kg s.c., * 1% significance

## Nc1ccccc1C(=O)CCNc1ccc([N+](=O)[O-])cc1[N+](=O)[O-] [2-(2-aminobenzoyl)-N-(2,4-dinitrophenyl)ethylamine]
NMDA receptors
  activity on NMDA receptors: blocking activity
MPTP-treated mice; 1, 3 or 10 mg/kg, compared to the MPTP vehicle group
  locomotion, rearing and total activity of MPTP-treated mice: improved significantly
MPTP-treated mice; [1]
  LOCOMOTION: 273 ± 64 counts
  REARING: 290 ± 73 counts
  TOTAL ACTIVITY: 5160 ± 1093 counts
MPTP-treated mice; [2]
  LOCOMOTION: 473 ± 108 counts
  REARING: 582 ± 145 counts
  TOTAL ACTIVITY: 6250 ± 625 counts
MPTP-treated mice; [3]
  LOCOMOTION: 510 ± 107 counts
  REARING: 731 ± 110 counts
  TOTAL ACTIVITY: 6563 ± 781 counts
MPTP-treated mice; [4]
  LOCOMOTION: 470 ± 110 counts
  REARING: 619 ± 102 counts
  TOTAL ACTIVITY: 6250 ± 625 counts
MPTP-treated mice; MPTP mice, any dose (0.3-10 mg/kg i.p.), compared to MPTP-treated vehicle mice
  effect on motor behaviour in the first 60-min period before L-Dopa: no effect at any dose
MPTP-treated mice; MPTP mice, with L-Dopa 5 mg/kg s.c.
  all three behavioural parameters when administered together with a subthreshold dose of L-Dopa: improved significantly
MPTP-treated mice; vehicle control (non-MPTP) animals
  effect on motor variables in vehicle control animals: no effects in any variable
